In patent US12428412B2 (DANA-FARBER CANCER INSTITUTE, INC., priority 2018, dated 2025):
Entries after “also recorded” stand apart in the source; their conditions may differ.

Experiments:
Kelly cells = test: ATPlite cell growth inhibition assay, Kelly cell lines treated 72 hours; assay type: cell-based; conditions: for Kelly NB cell growth inhibition: 72 hours, ATPlite, normalized to DMSO; for IC50: ND: not detected
Experimental: Compounds CPD 1 to CPD 22 were tested via ATPlite™ assay (ATPlite™ 1000 assay kit, PerkinElmer®, USA) using standard protocol. […] The signal is normalized to DMSO treated cells.

HAT (EP300) domain = biological target: T1, HAT (EP300) domain (Homo sapiens, UniProt Q09472); test: AlphaScreen assay, HAT (EP300) domain; assay type: binding
T1 sequence (Q09472 1287-1663 limits assumed): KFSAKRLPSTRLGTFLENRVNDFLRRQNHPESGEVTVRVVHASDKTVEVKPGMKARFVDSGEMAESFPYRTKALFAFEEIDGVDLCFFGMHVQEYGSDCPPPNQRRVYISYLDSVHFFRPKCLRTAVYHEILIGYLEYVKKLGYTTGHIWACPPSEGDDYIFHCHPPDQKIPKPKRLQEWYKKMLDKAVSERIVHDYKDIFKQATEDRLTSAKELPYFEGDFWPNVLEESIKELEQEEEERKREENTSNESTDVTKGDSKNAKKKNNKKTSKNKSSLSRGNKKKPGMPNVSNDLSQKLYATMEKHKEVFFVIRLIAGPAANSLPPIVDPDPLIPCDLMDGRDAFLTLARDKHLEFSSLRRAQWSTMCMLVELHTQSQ
Experimental: The AlphaScreen™ assay was performed in 384-well plate format using white AlphaPlate (PerkinElmer®, USA), and transfer of pre-diluted compound (100 nL) was performed using a Janus Workstation (PerkinElmer®, USA). All subsequent steps were carried out in assay buffer (50 mM 4-(2-hydroxyethyl)-1-piperazineethanesulfonic acid (HEPES), pH 7.5, 0.1% (wt/vol) bovine serum albumin (BSA) and 0.01% (vol/vol) Tween-20). In brief, 10 μL of assay buffer containing enzyme (2 nM Final) was pre-incubated for 15 min with dilutions of compound. The enzyme reaction was initiated by the addition of substrate (5 μL) consisting of acetyl Co-A 2-OG (5 μM Final).
FAS final concentration was 10 μM. Histone tail-GGK Biotin final concentration was 100 nM Final. The enzyme reaction was allowed to proceed for 30 minutes and was stopped by the addition of 5 μL of assay buffer containing ethylenediaminetetraacetic acid (EDTA) (40 mM) and NaCl (1200 mM). The final concentration of dimethyl sulfoxide (DMSO) was 1%. Streptavidin donor beads (0.08 mg/mL) and protein-A-conjugated acceptor beads (0.08 mg/mL) were preincubated for 1 h with antibody to methyl mark (300 ng/mL Final), and the presence of histone H3 product acetylation mark was detected using the preincubated AlphaScreen™ beads (5 μL). Detection was allowed to proceed for 2 hours at rt, and the assay plates were read on the Envision™ 2104 plate reader. Data were normalized to the (no-enzyme) control, and the IC50 values were determined via nonlinear regression curve fit using GraphPad Prism (FIG. 4E-FIG. 4H).
AlphaScreen™ assay was used to determine the binding of inventive degrader compound toward both CRBN and HAT domain. The experimental protocol is the same as in Example 26.

Kelly NB cells = test: EP300/CBP inhibitors in Kelly NB cells (colony formation, CellTiter-Glo growth assays); assay type: cell-based
Experimental: The effects of several EP300/CBP inhibitors, C646, CBP30 and A485 were tested in Kelly NB cells. (FIG. 2B).

cereblon (CRBN) = cereblon (CRBN) (Homo sapiens, UniProt Q96SW2); test: AlphaScreen assay, cereblon (CRBN); assay type: binding
Sequence of cereblon (CRBN) (Q96SW2 whole entry): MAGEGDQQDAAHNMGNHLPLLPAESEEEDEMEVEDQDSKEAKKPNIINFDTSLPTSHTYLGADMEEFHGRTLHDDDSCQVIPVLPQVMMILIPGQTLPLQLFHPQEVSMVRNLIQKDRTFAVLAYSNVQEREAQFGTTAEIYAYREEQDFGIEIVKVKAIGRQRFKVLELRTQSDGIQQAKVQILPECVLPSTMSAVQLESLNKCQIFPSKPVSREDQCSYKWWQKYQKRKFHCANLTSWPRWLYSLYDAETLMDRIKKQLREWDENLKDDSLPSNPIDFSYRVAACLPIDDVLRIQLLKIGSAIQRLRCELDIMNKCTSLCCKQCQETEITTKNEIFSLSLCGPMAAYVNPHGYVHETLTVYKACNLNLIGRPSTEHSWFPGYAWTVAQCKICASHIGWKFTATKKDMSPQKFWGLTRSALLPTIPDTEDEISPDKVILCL
Excerpt: An AlphaLISA® assay for EP300 catalytic function (FIG. 3B) and an AlphaScreen™ assay for EP300 bromodomain and cereblon (CRBN) using biotinylated tagged small molecules as a probe for EP300 bromodomain and CRBN, respectively, were developed (FIG. 3C).
AlphaScreen™ assay was used to determine the binding of inventive degrader compound toward both CRBN and HAT domain.

[1] = in mice; cited from earlier work

binding to cereblon (CRBN) (cereblon (CRBN)) | Compound | Kelly NB cell growth inhibition (Kelly cells) | IC50 (Kelly cells) | further results
– | C[C@H](N(Cc1ccc(F)cc1)C(=O)CN1C(=O)O[C@@]2(CCc3cc(NC(=O)CCCNC(=O)CCCCCCCCCCCNc4ccc5c(c4)C(=O)N(C4CCC(=O)NC4=O)C5=O)ccc32)C1=O)C(F)(F)F (stereo partly shown) | outperformed positive control A485; also recorded: Cell growth inhibition was observed | 0.31 µM | –
– | CC(N(Cc1ccc(F)cc1)C(=O)CN1C(=O)O[C@@]2(CCc3cc(NC(=O)CCCNC(=O)CCCCCNc4ccc5c(c4)C(=O)N(C4CCC(=O)NC4=O)C5=O)ccc32)C1=O)C(F)(F)F (stereo in doubt) [CPD 10, 6-((2-(2,6-dioxopiperidin-3-yl)-1,3-dioxoisoindolin-5-yl)amino)-N-(4-(((R)-3′-(2-((4-fluorobenzyl)((R)-1,1,1-trifluoropropan-2-yl)amino)-2-oxoethyl)-2′,4′-dioxo-2,3-dihydrospiro[indene-1,5′-oxazolidin]-5-yl)amino)-4-oxobutyl)hexanamide] | Cell growth inhibition was observed | 1.15 µM | –
bind | C[C@H](N(Cc1ccc(F)cc1)C(=O)CN1C(=O)O[C@@]2(CCc3cc(NC(=O)CCOCCOCCOCCOCCOCCOCCNc4cccc5c4C(=O)N(C4CCC(=O)NC4=O)C5=O)ccc32)C1=O)C(F)(F)F (stereo partly drawn) [CPD 2, 1-((2-(2,6-dioxopiperidin-3-yl)-1,3-dioxoisoindolin-4-yl)amino)-N—((R)-3′-(2-((4-fluorobenzyl)((S)-1,1,1-trifluoropropan-2-yl)amino)-2-oxoethyl)-2′,4′-dioxo-2,3-dihydrospiro[indene-1,5′-oxazolidin]-5-yl)-3,6,9,12,15,18-hexaoxahenicosane-21-amide] | did not inhibit cellular growth | 3.42 µM | binding to HAT (EP300) domain (HAT (EP300) domain): bind
– | C[C@H](N(Cc1ccc(F)cc1)C(=O)CN1C(=O)O[C@@]2(CCc3cc(NC(=O)CCc4ccc(NC(=O)CCCCCCCCCCCNc5ccc6c(c5)C(=O)N(C5CCC(=O)NC5=O)C6=O)cc4)ccc32)C1=O)C(F)(F)F (stereo partly drawn) [CPD 13, 12-((2-(2,6-dioxopiperidin-3-yl)-1,3-dioxoisoindolin-5-yl)amino)-N-(4-(3-(((R)-3′-(2-((4-fluorobenzyl)((S)-1,1,1-trifluoropropan-2-yl)amino)-2-oxoethyl)-2′,4′-dioxo-2,3-dihydrospiro[indene-1,5′-oxazolidin]-5-yl)amino)-3-oxopropyl)phenyl)dodecanamide] | Cell growth inhibition was observed | 1.39 µM | –
– | CC(=O)Nc1ccc2c(c1)CC[C@@]21OC(=O)N(CC(=O)N(Cc2ccc(F)cc2)[C@H](C)CNC(=O)CCCCCCCCCCCNc2ccc3c(c2)C(=O)N(C2CCC(=O)NC2=O)C3=O)C1=O (stereo partly drawn) [CPD 15, N—((R)-2-(2-((R)-5-acetamido-2′,4′-dioxo-2,3-dihydrospiro[indene-1,5′-oxazolidin]-3′-yl)-N-(4-fluorobenzyl)acetamido)propyl)-12-((2-(2,6-dioxopiperidin-3-yl)-1,3-dioxoisoindolin-5-yl)amino)dodecanamide] | Cell growth inhibition was observed | 1.76 µM | –
– | CC(=O)Nc1ccc2c(c1)CC[C@@]21OC(=O)N(CC(=O)N(Cc2ccc(F)cc2)[C@@H](C)CNC(=O)CCCCCCCCCCCNc2ccc3c(c2)C(=O)N(C2CCC(=O)NC2=O)C3=O)C1=O (stereo partly drawn) [CPD 16, N—((S)-2-(2-((R)-5-acetamido-2′,4′-dioxo-2,3-dihydrospiro[indene-1,5′-oxazolidin]-3′-yl)-N-(4-fluorobenzyl)acetamido)propyl)-12-((2-(2,6-dioxopiperidin-3-yl)-1,3-dioxoisoindolin-5-yl)amino)dodecanamide] | outperformed positive control A485; also recorded: Cell growth inhibition was observed | 0.27 µM | –
bind | Nc1cccc2c1C(=O)N(C1CCC(=O)NC1=O)C2=O (stereo not shown) [pomalidomide, reference compound] | – | – | –
bind | O=C1CCC(N2C(=O)c3ccccc3C2=O)C(=O)N1 (stereo not shown) [thalidomide, reference compound] | – | – | –

Compound | binding to cereblon (CRBN) (cereblon (CRBN)) | Kelly NB cell growth inhibition (Kelly cells) | IC50 (Kelly cells) | further results
CNC(=O)Nc1ccc2c(c1)CC[C@@]21OC(=O)N(CC(=O)N(Cc2ccc(F)cc2)[C@@H](C)C(F)(F)F)C1=O [A485, N-[(4-fluorophenyl)methyl]-2-{(1R)-5-[(methylcarbamoyl)amino]-2′,4′-dioxo-2,3-dihydro-3′H-spiro[indene-1,5′-[1,3]oxazolidin]-3′-yl}-N-[(2S)-1,1,1-trifluoropropan-2-yl]acetamide] | no binding was observed | – | – | binding to HAT (EP300) domain (HAT (EP300) domain): bind; apoptosis (Kelly NB cells; Kelly NB cells, increasing doses): induction of apoptosis; growth inhibition (Kelly NB cells; Kelly NB cells, increasing doses, CellTiter-Glo): growth inhibition; growth changes in cellular models of NB compared with C646 and CBP30 (Kelly NB cells; at submicromolar levels): superior to other known EP300/CBP inhibitors; half life [1]: 42 min
